Tests used:
[1] = tested on: T. cruzi Tulahuen trypomastigotes; assay: T. cruzi trypomastigote assay (Cell Titer-Glo viability, ATP luminescence); type: cell-based, Trypanosoma cruzi; settings: for Trypomastigotes pIC50 48 hours: 48 hours incubation; for Trypomastigotes pIC50 48 hours / Trypomastigotes pIC50 72 hours: pIC50 = -log10 IC50 in molar units; for Trypomastigotes pIC50 72 hours: 72 hours incubation; for 48 pIC50 / 72 pIC50: trypomastigote assay; for 48 pIC50: 48 h; for 72 pIC50: 72 h
Procedure: T. cruzi Tulahuen trypomastigotes obtained from the supernatants of LLC-MK2 infected cultures in a 225 cm^2 T-Flasks harvested between days 5 and 8 of infection. Trypomastigotes (5 × 10^4 per well) in 50 μl of DMEM/ 2% FBS were dispensed into white 384 plates (Greiner) pre-stamped with 250 nl compound a single-shot final concentration of 5 μM, or in dose response. […] Cell Titer-Glo cell viability solution (Promega) was added to each well (50 μL) incubated at room temperature for 10 min and luminescence read by Envision plate reader (Perkin Elmer). This assay quantifies the amount of ATP present which is directly proportional to the number of metabolically active cells. All data were normalised (100% effect control for no cells and 0% effect control for DMSO). This assay was adapted from MacLean et al., 2018 [22].

TcCYP51 = settings: formerly reported; cited from earlier work

## O=C(NCC1CCCCC1)c1cnns1 [TCMDC-143612]
[1]
  Trypomastigotes pIC50 48 hours: 4.7
  Trypomastigotes pIC50 72 hours: 4.9
TcCYP51
  CYP51 pIC50: < 4

## CC(Cn1ccnc1)NC(=O)C=Cc1ccc(Cl)cc1 (stereo not drawn) [TCMDC-143423]
[1]
  Trypomastigotes pIC50 48 hours: < 4.3
  Trypomastigotes pIC50 72 hours: < 4.3
[1]; figure 1A
  48 pIC50: < 4.3
  72 pIC50: < 4.3
[1]; figure 1B
  72 pIC50: < 4.3
TcCYP51
  CYP51 pIC50: 6.8

## CNc1cncc(C2CCCN2C(=O)Cc2coc3cc(C)ccc23)n1 (stereo not drawn) [TCMDC-143464]
[1]
  Trypomastigotes pIC50 48 hours: < 4.3
  Trypomastigotes pIC50 72 hours: < 4.3
[1]; figure 1A
  48 pIC50: < 4.3
  72 pIC50: < 4.3
[1]; figure 1B
  72 pIC50: < 4.3
TcCYP51
  CYP51 pIC50: 7.6

## O=C(Nc1nc(-c2ccc(S(=O)(=O)N3CCOCC3)cc2)cs1)c1ccc([N+](=O)[O-])cc1 [TCMDC-143282]
[1]
  Trypomastigotes pIC50 48 hours: 5.8
  Trypomastigotes pIC50 72 hours: 5.8
[1]; figure 1A
  48 pIC50: 5.8
  72 pIC50: 5.8
[1]; figure 1B
  72 pIC50: 5.8
TcCYP51
  CYP51 pIC50: < 4

## COc1ccc(CN2CCCCC2c2nc(-c3cccnc3)no2)cc1 (stereo not drawn) [TCMDC-143467]
[1]
  Trypomastigotes pIC50 48 hours: < 4.3
  Trypomastigotes pIC50 72 hours: < 4.3
[1]; figure 1A
  48 pIC50: < 4.3
  72 pIC50: < 4.3
[1]; figure 1B
  72 pIC50: < 4.3
TcCYP51
  CYP51 pIC50: 6.7

## CCC1Oc2cc(S(=O)(=O)N(C)CC(=O)N3CCc4ccccc4C3)c(C)cc2NC1=O (stereo not drawn) [TCMDC-143332]
[1]
  Trypomastigotes pIC50 48 hours: < 4.3
  Trypomastigotes pIC50 72 hours: < 4.3
[1]; figure 1A
  48 pIC50: < 4.3
  72 pIC50: < 4.3
[1]; figure 1B
  72 pIC50: < 4.3
TcCYP51
  CYP51 pIC50: 6.1

## O=C1CN(C2CCCc3c(OCc4ccncc4)cccc32)C(=O)N1C1CCCCC1 (stereo not drawn) [TCMDC-143613]
[1]
  Trypomastigotes pIC50 48 hours: < 4.3
  Trypomastigotes pIC50 72 hours: < 4.3
[1]; figure 1A
  48 pIC50: < 4.3
  72 pIC50: < 4.3
[1]; figure 1B
  72 pIC50: < 4.3
TcCYP51
  CYP51 pIC50: 7.7

## Cc1ccc(S(=O)(=O)Cn2nnnc2C(c2cccnc2)N2CCN(c3ccccc3)CC2)cc1 (stereo not drawn) [TCMDC-143539]
[1]
  Trypomastigotes pIC50 48 hours: < 4.3
  Trypomastigotes pIC50 72 hours: < 4.3
[1]; figure 1A
  48 pIC50: < 4.3
  72 pIC50: < 4.3
[1]; figure 1B
  72 pIC50: < 4.3
TcCYP51
  CYP51 pIC50: 6.7

## N#Cc1cccc(CN2CCC(c3nc(-c4ccc(C(F)(F)F)nc4)no3)CC2)c1 [TCMDC-143179]
[1]
  Trypomastigotes pIC50 48 hours: < 4.3
  Trypomastigotes pIC50 72 hours: < 4.3
[1]; figure 1A
  48 pIC50: < 4.3
  72 pIC50: < 4.3
[1]; figure 1B
  72 pIC50: < 4.3
TcCYP51
  CYP51 pIC50: < 4

## CNc1cncc(C2CCCN2C(=O)Cc2ccc3ccccc3c2)n1 (stereo not drawn) [TCMDC-143465]
[1]
  Trypomastigotes pIC50 48 hours: < 4.3
  Trypomastigotes pIC50 72 hours: < 4.3
[1]; figure 1A
  48 pIC50: < 4.3
  72 pIC50: < 4.3
[1]; figure 1B
  72 pIC50: < 4.3
TcCYP51
  CYP51 pIC50: 7

## CC(C(=O)Nc1ccc(Br)cc1)N1CCN(c2ccc([N+](=O)[O-])cc2)CC1 (stereo not drawn) [TCMDC-143545]
[1]
  Trypomastigotes pIC50 48 hours: < 4.3
  Trypomastigotes pIC50 72 hours: < 4.3
[1]; figure 1A
  48 pIC50: < 4.3
  72 pIC50: < 4.3
[1]; figure 1B
  72 pIC50: < 4.3
TcCYP51
  CYP51 pIC50: 4.4

## CC1=C(C(=O)Nc2ccc(Cl)cc2)C(c2ccncc2)n2ncc(C(=O)Nc3ccccc3)c2N1 (stereo not drawn) [TCMDC-143187]
[1]
  Trypomastigotes pIC50 48 hours: < 4.3
  Trypomastigotes pIC50 72 hours: < 4.3
[1]; figure 1A
  48 pIC50: < 4.3
  72 pIC50: < 4.3
[1]; figure 1B
  72 pIC50: < 4.3
TcCYP51
  CYP51 pIC50: 6.9

## O=C(NCCNc1noc(-c2ccc([N+](=O)[O-])cc2)n1)c1ccc(Cl)cc1 [TCMDC-143241]
[1]
  Trypomastigotes pIC50 48 hours: 5.4
  Trypomastigotes pIC50 72 hours: 5.5
TcCYP51
  CYP51 pIC50: < 4

## O=C(Nc1cccc(Cl)c1)N1CCCCC1c1cccnc1 (stereo not drawn) [TCMDC-143529]
[1]
  Trypomastigotes pIC50 48 hours: < 4.3
  Trypomastigotes pIC50 72 hours: < 4.3
[1]; figure 1A
  48 pIC50: < 4.3
  72 pIC50: < 4.3
[1]; figure 1B
  72 pIC50: < 4.3
TcCYP51
  CYP51 pIC50: 7.7

## CN(Cc1nc2ccccc2s1)C(=O)C=Cc1cc2ccccc2o1 [TCMDC-143354]
[1]
  Trypomastigotes pIC50 48 hours: 4.4
  Trypomastigotes pIC50 72 hours: < 4.3
TcCYP51
  CYP51 pIC50: 6.8

## O=C(NCc1ccc(-n2cccc2)cc1)c1nc(Cn2ccc([N+](=O)[O-])n2)no1 [TCMDC-143103]
[1]
  Trypomastigotes pIC50 48 hours: 6
  Trypomastigotes pIC50 72 hours: 5.9
TcCYP51
  CYP51 pIC50: < 4

## Cc1cc(C)c(C#N)c(SCC(=O)c2ccc3c(c2)OCO3)n1 [TCMDC-143625]
[1]
  Trypomastigotes pIC50 48 hours: 5.7
  Trypomastigotes pIC50 72 hours: 5.5
TcCYP51
  CYP51 pIC50: < 4

## N#Cc1c(Oc2cccc(Cl)c2)cccc1[N+](=O)[O-] [TCMDC-143608]
[1]
  Trypomastigotes pIC50 48 hours: 6.9
  Trypomastigotes pIC50 72 hours: 6.9
[1]; figure 1A
  48 pIC50: 6.9
  72 pIC50: 6.9
[1]; figure 1B
  72 pIC50: 6.9
TcCYP51
  CYP51 pIC50: < 4

## CN(C)c1ccc(-c2cc3nccnc3c(OC[C@H]3CCCNC3)n2)cn1.Cl [TCMDC-143408]
[1]
  Trypomastigotes pIC50 48 hours: 4.5
  Trypomastigotes pIC50 72 hours: 5.2
TcCYP51
  CYP51 pIC50: < 4

Reference: paper PMC8318231, “Rate-of-Kill (RoK) assays to triage large compound sets for Chagas disease drug discovery: Application to GSK Chagas Box” (PLoS Neglected Tropical Diseases, 2021)
